In patent US8937065B2, “Compositions and methods for modulating a kinase” (Clevexel Pharma, priority 2011, dated 2015):

Tests used:
[1] = tested on: Interleukin 4/STAT6-STAT6-bla RA1; test: Interleukin 4/STAT6-STAT6-bla RA1 inhibition (IL-4-stimulated STAT6 activity in Ramos cells); format: cell-based; details: Homo sapiens; Ramos cells, IL4 stimulated; read-out: IC50 B cells mechanism-based: Ramos cells IL4 stimulated STAT6 activity
Description: The inhibition of Interleukin 4/STAT6-STAT6-bla RA1 (activated by IL-4) by several compounds was determined using the Screening Protocol and Assay Conditions (Invitrogen, Madison, Wis.). The assays were performed according to manufacturer's protocols. Example 4, Cell-line Specific Protocols IL-4-stimulated STAT6 activity in Ramos cells for details.
(§1) Mechanism-based inhibition assays using compound 7A (Table 1) were performed using GeneBLAzer® Technology (Invitrogen Corporation), according to manufacturer specifications. […] In this state, excitation of the coumarin results in fluorescence resonance energy transfer to the fluorescein moiety and emission of green light. […] Excitation of the coumarin in the presence of Beta-lactamase activity results in a blue fluorescence signal. […]
(§2) An activator assay screen was run to obtain the EC80 concentration of the known activator to add in step 3. • 1. […] 4 μL of the EC80 concentration of activator, as determined in an Activator assay, was added to all wells containing compound and known inhibitor to bring the final assay volume to 40 μL. • 4. […] The assay plate was read on a fluorescence plate reader (Tecan Safire) and the data is analyzed. […]
STAT6-bla RA1 cells were thawed. […] The plate was read on a fluorescence plate reader.

[2] = tested on: B cell receptor NFAT-bla RA1; test: B cell receptor NFAT-bla RA1 inhibition (goat anti-human IgM stimulated, Ramos cells); details: read-out: IC50 B cells mechanism-based: Ramos cells IgM stimulated NFAT activity
Description: The inhibition of B cell receptor NFAT-bla RA 1 (activated by goat anti-human IgM, which stimulates the SYK signaling pathway) by several compounds was determined using the Screening Protocol and Assay Conditions (Invitrogen, Madison, Wis.). The assays were performed according to manufacturer's protocols. See Example 4, Cell-line Specific Protocols B cell receptor activity in Ramos cells for details.
as §1, §2
NFAT-bla RA1 cells were thawed. […] The plate was read on a fluorescence plate reader.

[3] = tested on: IL-2-stimulated STAT5 activity in CTLL-2 cells; test: IL-2-stimulated STAT5 activity in CTLL-2 cells (Irf1-bla CTLL-2); format: cell-based; details: Mus musculus, mCTLL-2, IL-2 stimulated, read-out: IC50 T cells mechanism-based: mCTLL-2 IL-2 Stimulated STAT5 activity
Description: Mechanism-based inhibition assays using compound 7A (Table 1) were performed using GeneBLAzer® Technology (Invitrogen Corporation), according to manufacturer specifications. Briefly, GeneBLAzer® Technology uses a mammalian-optimized Beta-lactamase reporter gene (bla) combined with a FRET-enabled substrate to provide reliable and sensitive detection in intact cells. Cells were loaded with an engineered fluorescent substrate containing two fluorophores, coumarin and fluorescein. Without bla expression, the substrate molecule remains intact. In this state, excitation of the coumarin results in fluorescence resonance energy transfer to the fluorescein moiety and emission of green light. […] Excitation of the coumarin in the presence of Beta-lactamase activity results in a blue fluorescence signal. […]
as §2
Irf1-bla CTLL-2 cells were thawed and prepared as described above for the Activator Screen. […] The plate was read on a fluorescence plate reader.

O=C(CN1CCOCC1)Nc1cccc(-c2nc(-c3c[nH]c(C(=O)N4CCCC4)c3)cs2)c1 [7A, 2-morpholino-N-(3-(4-(5-(pyrrolidine-1-carbonyl)-1H-pyrrol-3-yl)thiazol-2-yl)phenyl)acetamide]
IC50 [1]: 32 nM | IC50 [2]: 124 nM | IC50 [3]: 6200 nM
